Results on five compounds are retold here after patent US9980943B2, “Methods of treating muscular dystrophy” (BOARD OF REGENTS OF THE NEVADA SYSTEM OF HIGHER EDUCATION, …, priority 2013, dated 2018).

Holding throughout (type): cell-based, mouse
Assay [1] concerns α7 integrin (LacZ reporter in α7βgal+/− myoblasts). Put plainly: Myoblast α7+/LacZ integrin FDG assay (Burkin assay in myoblasts, 96-well). Conditions: 96-well; for Burkin Assay in Myoblasts, value relative to DMSO: SU9516 analogs, N=3-6; for Burkin Assay in Myoblasts, signal relative to DMSO: α7+/LacZ myoblasts.
Assay [2] relates to α7 integrin (LacZ reporter in α7+/LacZ myotubes). Put plainly: Myotube α7 integrin FDG assay (Burkin assay in myotubes, 96-well). Conditions: for Burkin Assay in Myotubes, value relative to DMSO: SU9516 analogs, 96-well, N=3-6.
For assay [3], the system named is β-galactosidase in CMV-LacZ C2C12 myoblasts. Nature of the assay: CMV-LacZ secondary screen in C2C12 myoblasts (β-Gal stabilizing assay). Conditions: for CMV-LACZ in Myoblasts, value relative to DMSO: SU9516 analogs, C2C12 CMV-LacZ, N=2; for CMV-LACZ in Myoblasts (β-galactosidase activity relative to DMSO): CMV-LacZ C2C12 myoblasts. The method, boiled down: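 Dose-response runs at 0.5–40 μM (0.5, 1, 5, 10, 20, 40 μM; N=2 per point) used a clonal C2C12 line carrying CMV-LacZ. Cells were assayed as myoblasts or as differentiated myotubes, and β-galactosidase levels were read with the FDG fluorogenic substrate.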

Assay [4] concerns β-galactosidase in CMV-LacZ C2C12 myotubes. Put plainly: CMV-LacZ secondary screen in C2C12 myotubes (β-Gal stabilizing assay). Conditions: for CMV-LACZ in Myotubes, value relative to DMSO: SU9516 analogs, C2C12 CMV-LacZ, N=2; for CMV-LACZ in Myotubes, signal relative to DMSO: C2C12 CMV-LacZ myotubes, fold relative to DMSO. The method, boiled down: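 A secondary screen identifies compounds that stabilize β-gal independently of the native promoter, using CMV-LacZ C2C12 cells. Curves span 0.5–40 μM at six levels, in duplicate.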

For `Cc1ccc(/C=C2\C(=O)Nc3ccccc32)o1` [MLS000391588-01], the “Burkin Assay in Myoblasts, value relative to DMSO” value in assay [1] (0.5 uM) turned out to be 1.07; in assay [1] (1 uM), 1.015; in assay [1] (5 uM), 0.9119; in assay [1] (10 uM) it was 0.8176; in assay [1] (20 uM), 0.7804; in assay [1] (40 uM), 0.3005. In addition, the “Burkin Assay in Myotubes, value relative to DMSO” value is reported as 1.073 in assay [2] (0.5 uM); 0.9563 in assay [2] (1 uM); 0.8994 in assay [2] (5 uM); 0.9356 in assay [2] (10 uM); 0.7631 in assay [2] (20 uM); 0.664 in assay [2] (40 uM). Moreover, the “CMV-LACZ in Myoblasts, value relative to DMSO” value in assay [3] (0.5 uM) was 1.0009; in assay [3] (1 uM), 0.7411; in assay [3] (5 uM) it was 0.9885; in assay [3] (10 uM) it was 1.0968; in assay [3] (20 uM), 1.4307; in assay [3] (40 uM), 1.1119. Moreover, the “CMV-LACZ in Myotubes, value relative to DMSO” value in assay [4] (0.5 uM) is on record as 0.8400; in assay [4] (1 uM), 1.0010; in assay [4] (5 uM), 1.0019; in assay [4] (10 uM) it was 0.9740; in assay [4] (20 uM), 0.9212; in assay [4] (40 uM), 0.9094.
In the case of `CC(C)c1ccc(OC(=O)c2cccc(S(=O)(=O)N3CCN(C)CC3)c2)cc1` [MLS001130011-01], the “Burkin Assay in Myoblasts, signal relative to DMSO” value in assay [1] (0.5 uM) is on record as 0.9715; in assay [1] (1 uM), 0.8947; in assay [1] (5 uM) it was 1.374; in assay [1] (10 uM), 0.9762; in assay [1] (20 uM), 1.037; in assay [1] (40 uM) it was 0.9155. Besides, the “Burkin Assay in Myotubes, α7 integrin LacZ reporter signal relative to DMSO” value came out at 0.9553 in assay [2] (0.5 uM); 0.9952 in assay [2] (1 uM); 0.8834 in assay [2] (5 uM); 1.0699 in assay [2] (10 uM); 0.7883 in assay [2] (20 uM); 0.7512 in assay [2] (40 uM). Besides, the “CMV-LACZ in Myoblasts (β-galactosidase activity relative to DMSO)” value in assay [3] (0.5 uM) was determined as 1.1702; in assay [3] (1 uM), 0.7695; in assay [3] (5 uM) it was 1.0011; in assay [3] (10 uM), 1.1138; in assay [3] (20 uM), 0.7837; in assay [3] (40 uM), 0.8311. The “CMV-LACZ in Myotubes, signal relative to DMSO” value in assay [4] (0.5 uM) is listed as 0.9358; in assay [4] (1 uM) it was 1.0211; in assay [4] (5 uM), 0.9057; in assay [4] (10 uM), 0.8998; in assay [4] (20 uM), 0.8367; in assay [4] (40 uM), 1.0156.
In the case of `CCOc1cc2c3c(c1)C(C)=CC(C)(C)N3C(=O)C2=O` [MLS000710233-01], the “Burkin Assay in Myoblasts, value relative to DMSO” value in assay [1] (0.5 uM) amounted to 1.17; in assay [1] (1 uM), 1.159; in assay [1] (5 uM) it was 0.8066; in assay [1] (10 uM) it was 0.5637; in assay [1] (20 uM), 0.1723; in assay [1] (40 uM), 0.1743. In addition, the “Burkin Assay in Myotubes, value relative to DMSO” value in assay [2] (0.5 uM) is recorded as 1.11; in assay [2] (1 uM) it was 1.033; in assay [2] (5 uM), 0.9331; in assay [2] (10 uM), 0.8688; in assay [2] (20 uM), 0.6933; in assay [2] (40 uM), 0.6295. Also, the “CMV-LACZ in Myoblasts, value relative to DMSO” value is 1.0173 in assay [3] (0.5 uM); 0.8263 in assay [3] (1 uM); 0.8263 in assay [3] (5 uM); 0.8509 in assay [3] (10 uM); 0.8530 in assay [3] (20 uM); 0.8779 in assay [3] (40 uM). Further, the “CMV-LACZ in Myotubes, value relative to DMSO” value in assay [4] (0.5 uM) came out at 0.8781; in assay [4] (1 uM) it was 0.9410; in assay [4] (5 uM), 0.9060; in assay [4] (10 uM), 1.0698; in assay [4] (20 uM), 1.1130; in assay [4] (40 uM), 1.1380.
As for `Cc1[nH]c(=O)[nH]c(=O)c1S(=O)(=O)Nc1ccc(F)cc1Cl` [MLS001200149-01], the “Burkin Assay in Myoblasts, signal relative to DMSO” value is 1.039 in assay [1] (0.5 uM); 1.156 in assay [1] (1 uM); 1.0782 in assay [1] (5 uM); 0.998 in assay [1] (10 uM); 1.021 in assay [1] (20 uM); 0.9876 in assay [1] (40 uM). For the same compound, the “Burkin Assay in Myotubes, α7 integrin LacZ reporter signal relative to DMSO” value in assay [2] (0.5 uM) is 1.26; in assay [2] (1 uM) it was 1.072; in assay [2] (5 uM), 1.069; in assay [2] (10 uM) it was 1.094; in assay [2] (20 uM) it was 0.9286; in assay [2] (40 uM), 0.8363. Besides, the “CMV-LACZ in Myoblasts (β-galactosidase activity relative to DMSO)” value is 1.1234 in assay [3] (0.5 uM); 0.9203 in assay [3] (1 uM); 0.9489 in assay [3] (5 uM); 1.0523 in assay [3] (10 uM); 0.9363 in assay [3] (20 uM); 1.1552 in assay [3] (40 uM). For the same compound, the “CMV-LACZ in Myotubes, signal relative to DMSO” value in assay [4] (0.5 uM) amounted to 0.8378; in assay [4] (1 uM) it was 0.9933; in assay [4] (5 uM), 0.9974; in assay [4] (10 uM), 0.8176; in assay [4] (20 uM), 0.8318; in assay [4] (40 uM) it was 0.9424.
In the case of `C=CCOc1ccc(C(=O)/C=C2/C(=O)Nc3ccccc32)cc1` [MLS001214264-01], the “Burkin Assay in Myoblasts, value relative to DMSO” value worked out at 0.8908 in assay [1] (0.5 uM); 0.8464 in assay [1] (1 uM); 0.743 in assay [1] (5 uM); 0.7009 in assay [1] (10 uM); 0.7879 in assay [1] (20 uM); 0.2394 in assay [1] (40 uM). Further, the “Burkin Assay in Myotubes, value relative to DMSO” value in assay [2] (0.5 uM) turned out to be 0.9576; in assay [2] (1 uM), 0.8975; in assay [2] (5 uM), 0.9073; in assay [2] (10 uM), 1.058; in assay [2] (20 uM), 0.7165; in assay [2] (40 uM), 0.7173. Moreover, the “CMV-LACZ in Myoblasts, value relative to DMSO” value is listed as 1.0657 in assay [3] (0.5 uM); 1.1383 in assay [3] (1 uM); 1.3058 in assay [3] (5 uM); 0.9233 in assay [3] (10 uM); 0.3870 in assay [3] (20 uM); 0.4856 in assay [3] (40 uM). Moreover, the “CMV-LACZ in Myotubes, value relative to DMSO” value in assay [4] (0.5 uM) was found to be 1.1210; in assay [4] (1 uM) it was 1.1905; in assay [4] (5 uM), 0.9411; in assay [4] (10 uM), 1.1534; in assay [4] (20 uM), 1.2424; in assay [4] (40 uM), 1.4482.
